Laboratory results as given in patent publication US9452152B2, “Fe(III) complex compounds for the treatment and prophylaxis of iron deficiency symptoms and iron deficiency anemias” (Vifor (International) AG, priority 2012, dated 2016).

Tests used:
[1] = system: Male NMRI (SPF) mice fed a low-iron diet; test: Fe utilization in iron-deficient mouse model (hemoglobin and body weight increase); assay type: in vivo; details: for Utilization n 15 d (abs. %): mice, stomach tube, 2 mg iron/kg body weight/day, days 1-5 and 8-12, utilization on day 15; for iron utilization, Example according to the invention: comparison table, compounds of the invention
Procedure: The excellent Fe utilizations that can be accomplished through the Fe complexes according to the invention were measured by means of the following mouse model.
(In each case 6 animals per substance were used. There was a negative group (water) with 6 animals and as a positive group FeSO4 was used with 6 animals, too).
Male NMRI (SPF) mice (approximately 3 weeks old) were fed a low-iron diet (approx. 5 ppm iron) for approximately 3 weeks. The iron complexes were then administered to them by means of a stomach tube (2 mg iron/kg body weight/day) for 2 times 5 days, with an interruption of 2 days (days 1-5 and 8-12). Utilization on day 15 was calculated from the hemoglobin increase and the body weight increase in accordance with the formula
0.07=Factor for 70 ml blood per kg body weight (BW)
Hb1=Hemoglobin level (g/l) on day 1
Hb2(3)=Hemoglobin level (g/I) on day 8 (or 15)
BW4=body weight (g) on day 1
BW9(14)=body weight (g) on day 8 (or 15)
Hb1 Control=average hemoglobin level (g/l) on day 1 in the control group,
Hb2(3) Control=average hemoglobin level (g/l) on day 8 (or 15) in the control group,
BW4 Control=average body weight (g) on day 1 in the control group,
BW9(14) Control=average body weight (g) on day 8 (or 15) in the control group,
Fe Dos.=entire administered iron (mg Fe) over 5 or 10 days,
Δ Utilization=Fe tot. utilized (examined group)−Fe ut. Control group, utilized from food, (mg Fe)

[2] = Comparison of the pH-dependent solubility (photometric iron determination); assay type: physicochemical; details: water, pH 6.5 (phthalate buffer 0.1 m), 4 h, 25° C.; for Solubility based on amount of iron: ">" = weighed amount completely dissolved
From the text: The pH was adjusted to 6.5 with a phthalate buffer (0.1 m). […] UV device type SPECORD 205 manufacturer Jena Analytik). This value represents the solubility of the iron complex. If the weighed amount of the iron complex was completely dissolved, the measured value was indicated by the prefix “>”.

optical evaluation: dissolved? [2]	Solubility based on amount of iron [2]	Substance	Utilization n 15 d (abs. %) [1]	iron utilization, Example according to the invention ([1]; mouse model)	iron utilization (statement in words) ([1]; mouse model)
		Tris-(N,N-Dimethyl-3,4-dioxo-4-(pyrrolidine-1-yl)butaneamide)-iron(III) complex [Example 11]	50 abs. %		
no	470 µg/mL	Tris-(ethyl-N-[4-(dimethylamino)-2,4-dioxobutanoyl]-N-methylglycinate)-iron(III)-complex [Example 17]	91 abs. %		
yes	>510 µg/mL	Tris-(N^4-[2-(dimethylamino)-2-oxoethyl]-N^1,N^1,N^4-trimethyl-2-oxobutanediamide)-iron(III)-complex [Example 12]	80 abs. %		
yes	>550 µg/mL	Tris-(N,N,N′,N′-tetramethyl-2-oxobutanediamide)-iron(III)-complex [Example 5]	82 abs. %	82%	
		Tris-(4-(morpholine-4-yl)-2,4-dioxobutaneamide)-iron(III)-complex [Example 2]	75 abs. %	75%	
		Tris-(N^1,N^4,N^4-trimethyl-2-oxobutanediamide)-iron(III)-complex [Example 7]	68 abs. %		
no	490 µg/mL	Tris-(N^4-(2-hydroxyethyl)-N^1,N^1,N^4-trimethyl-2-oxobutanediamide)-iron(III)-complex [Example 21]	86 abs. %	86%	
		Tris-(2,4-dioxo-4-(pyrrolidine-1-yl)butaneamide)-iron(III)-complex [Example 4]	92 abs. %		
no	580 µg/mL	Tris-(N^1-[2-(dimethylamino)-2-oxoethyl]-N^1,N^4,N^4-trimethyl-2-oxobutanediamide)-iron(III)-complex [Example 18]	78 abs. %		

Substance	optical evaluation: dissolved? [2]	Solubility based on amount of iron [2]	Utilization n 15 d (abs. %) [1]	iron utilization, Example according to the invention ([1]; mouse model)	iron utilization (statement in words) ([1]; mouse model)
Tris-(N^4,N^4-dimethyl-2-oxobutanediamide)-iron(III)-complex [Example 1]	yes	529 µg/mL	98 abs. %	98%	significantly improved iron utilization compared to Example 32 of WO11117225A1
Tris-(N^1-(2-methoxyethyl)-N^4,N^4-dimethyl-2-oxobutanamid)-iron(III)-complex [Example 16]	no	450 µg/mL	65 abs. %		
Tris-(N^4-(2-methoxyethyl)-N^1,N^1,N^4-trimethyl-2-oxobutanediamide)-iron(III)-complex [Example 13]	yes	>520 µg/mL	70 abs. %		
